In assay [1] the test system is osteoclast-derived tartrate-resistant acid phosphatase form 5b (TRAcP-5b). In words: Bone biomarker evaluation: serum TRAcP-5b assay. The conditions noted are these: oral once a day, 7 consecutive days, female CRL:CD rats. In kind it is in vivo, rat. On the procedure: For in vitro osteogenesis, human adipose-derived stem cells (hADSC) (Invitrogen, UK; catalogue number R7788-115) were seeded into 12-well plates at a density of 5000 cells/cm^2 and were cultured in a basal media of phenol red-free Dulbecco's Modified Eagles Medium (DMEM; Sigma-Aldrich, UK; catalogue number D1145) supplemented with 5% fetal bovine serum (FBS, Gibco, UK; catalogue number 10270) and 2 mM GlutaMax® (Gibco; catalogue number 35050). […] The formation of mineralized bone nodules was assessed during the time-course using Alizarin Red S staining. […] The amount of mineralisation was quantified through the extraction of the Alizarin Red S stain from bone nodules using a cetylpyridinium chloride extraction method, previously described (Gregory et al., Analytical Biochemistry, 2004, 329: 77-84; Hwang et al., Stem Cells and Development 17: 963-970, 2008). […] Following incubation, 200 μl aliquots were transferred to 96-well format and the absorbance at 550 nm was determined using a microplate spectrophotometer (SpectraMax Plus, Molecular Devices, USA). Data were expressed as mean absorbance at 550 nm±Standard error of mean (SEM). […] Data are shown as mean absorbance at 550 nm and analysed using one-way ANOVA followed by Tukey's multiple comparison post hoc test: n=9; ***, P<0.001. […]

Another assay concerns the target T1, CYP3A4 (Homo sapiens, UniProt P08684).
T1 construct: purchased Cypex (Dundee, UK); host or cells: E. coli (membranes)
In words: CYP3A4 inhibition (midazolam oxidation to 1'-hydroxymidazolam). In kind it is in vitro ADME. The conditions noted are these: E. coli expressed 3A4 membranes, midazolam 2.5 μM; read-out: IC50 CYP3A4 (estimated). On the procedure: The ability of certain compounds to inhibit CYP3A4 in membranes was determined from the inhibition of midazolam oxidation to 1′-hydroxy midazolam. […] Employing an automated assay (full IC50) using the Automation Platform, up to thirteen compounds were run per plate as well as ketoconazole as a standard inhibitor of CYP3A4.
The incubations were carried out in 0.1 M phosphate buffer (pH 7.4 at 37° C.) containing DMSO (1%), midazolam (2.5 μM), phenacetin (25.7 μM), diclofenac (1.8 μM), S-mephenyloin (30.5 μM), bufuralol (8.8 μM), NADPH (1 mM), E. coli expressed 3A4 membranes (5 pmol/ml), 1A2 membranes (25 pmol/ml), 2C9 membranes (5 pmol/ml), 2C19 membranes (2.5 pmol/ml), 2D6 membranes (5 pmol/ml), and the test inhibitors ketoconazole, α-napthoflavone, sulphaphenazole, tranylcypromine and quinidine. […]
The assay was run on a robotic sample processor. […] The samples were centrifuged, transferred to a clean plate and analysed by LC MS/MS, which was conducted using an Applied Biosystems-Sciex API4000 mass spectrometer, with Agilent HP1100 binary solvent delivery pumps, and CTC HTS-PAL autosampler. […] The formation of product (1′-hydroxymidazolam) was monitored. […]
Rates of reaction were calculated for each reaction by measuring MS/MS area units. […]
The degree of inhibition of CYP3A4 was calculated and expressed as an IC50 value. […]

Where a name gives a salt, the structure may show the parent alone.

The term IC50 denotes the concentration that inhibits the measured activity by half.

T1 sequence (P08684 whole entry): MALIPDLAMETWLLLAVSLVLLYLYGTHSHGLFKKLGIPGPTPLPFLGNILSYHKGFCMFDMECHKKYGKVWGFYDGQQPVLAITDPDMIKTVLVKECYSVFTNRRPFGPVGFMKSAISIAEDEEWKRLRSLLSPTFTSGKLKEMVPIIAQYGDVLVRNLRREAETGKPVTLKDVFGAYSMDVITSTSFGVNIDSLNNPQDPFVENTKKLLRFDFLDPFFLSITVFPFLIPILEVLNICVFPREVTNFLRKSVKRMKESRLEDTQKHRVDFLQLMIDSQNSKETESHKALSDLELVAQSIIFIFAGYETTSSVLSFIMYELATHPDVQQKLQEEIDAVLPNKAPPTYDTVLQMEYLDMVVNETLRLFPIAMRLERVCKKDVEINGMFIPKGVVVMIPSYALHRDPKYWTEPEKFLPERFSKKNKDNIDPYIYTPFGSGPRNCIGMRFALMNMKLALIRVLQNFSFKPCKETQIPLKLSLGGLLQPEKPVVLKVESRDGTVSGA

Turning to `COCCCNCCCc1ccc(-c2cnc(N)c(C(=O)Nc3cccnc3)n2)cc1` [Example 1, 3-Amino-6-(4-{3-[(3-methoxypropyl)amino]propyl}phenyl)-N-pyridin-3-ylpyrazine-2-carboxamide tri-hydrochloride], the “Serum TRAcP-5b levels (marker of bone resorption)” value in assay [1] is “reduction in serum TRAcP-5b levels”. Moreover, the IC50 at CYP3A4 was more than 50 µM.
